The test system of one assay is U87MG cells. As to the kind of experiment: Cellular assay, inhibition of 2-HG production in U87MG cells. Format: cell-based. The conditions noted are these: 48 hours. How it is done:
Cells (HT1080 or U87MG) are grown in T125 flasks in DMEM containing 10% FBS, 1× penicillin/streptomycin and 500 ug/mL G418 (present in U87MG cells only). They are harvested by trypsin and seeded into 96 well white bottom plates at a density of 5000 cell/well in 100 ul/well in DMEM with 10% FBS. […] Cells are incubated overnight at 37° C. in 5% CO2. The next day test compounds are made up at 2× the final concentration and 100 ul are added to each cell well. The final concentration of DMSO is 0.2% and the DMSO control wells are plated in row G. The plates are then placed in the incubator for 48 hours. […] The cell plate is placed back in the incubator for another 24 hours. At 72 hours post compound addition, 10 mL/plate of Promega Cell Titer Glo reagent is thawed and mixed. The cell plate is removed from the incubator and allowed to equilibrate to room temperature. Then 100 ul of Promega Cell Titer Glo reagent is added to each well of media. The cell plate is then placed on an orbital shaker for 10 minutes and then allowed to sit at room temperature for 20 minutes. The plate is then read for luminescence with an integration time of 500 ms.

The next assay addresses IDH1 R132H (Homo sapiens (Human), UniProt O75874, R132H). As to the kind of experiment: In vitro NADPH depletion assay for IDH1m R132H inhibitors. The conditions noted are these: IDH1 R132H enzyme, read-out: IDH R132H IC50. Format: biochemical. The method, then:
(§1) A test compound is prepared as 10 mM stock in DMSO and diluted to 50× final concentration in DMSO, for a 50 μl reaction mixture. IDH enzyme activity converting alpha-ketoglutarate to 2-hydroxyglutaric acid is measured using a NADPH depletion assay. In the assay the remaining cofactor is measured at the end of the reaction with the addition of a catalytic excess of diaphorase and resazurin, to generate a fluorescent signal in proportion to the amount of NADPH remaining. […] The reaction is started with the addition of 10 μl of Substrate Mix ([…], 5 mM alpha-ketoglutarate, in Assay Buffer) and the mixture is incubated for 90 minutes at room temperature.

The next assay concerns the target IDH1 R132C (Homo sapiens (Human), UniProt O75874, R132C). Nature of the assay: In vitro NADPH depletion assay for IDH1m R132C inhibitors. Type of assay: biochemical. As to conditions: IDH1 R132C enzyme, read-out: IDH R132C IC50. The method, then: as §1
The concentration of NADPH and alpha-ketoglutarate in the Substrate Buffer is 20 μM and 1 mM, respectively.

Chain of IDH1 R132H (O75874 whole entry R132H): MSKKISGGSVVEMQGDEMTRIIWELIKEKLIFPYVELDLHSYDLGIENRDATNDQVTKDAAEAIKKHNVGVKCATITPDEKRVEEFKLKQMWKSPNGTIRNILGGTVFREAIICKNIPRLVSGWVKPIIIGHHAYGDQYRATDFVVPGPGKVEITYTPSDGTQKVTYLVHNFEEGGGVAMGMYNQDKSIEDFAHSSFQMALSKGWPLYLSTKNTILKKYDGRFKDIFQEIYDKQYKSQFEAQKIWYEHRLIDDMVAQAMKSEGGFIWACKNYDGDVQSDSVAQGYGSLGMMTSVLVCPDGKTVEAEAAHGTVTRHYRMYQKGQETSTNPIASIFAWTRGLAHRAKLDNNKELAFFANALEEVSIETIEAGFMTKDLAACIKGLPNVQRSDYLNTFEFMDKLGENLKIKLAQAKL
Chain of IDH1 R132C (O75874 whole entry R132C): as the sequence (O75874 whole entry R132H) above, with H132C counted along it

What is called IC50 is the concentration needed to halve the response being measured. Turning to “(S)—N—((S)-1-(2-Chlorophenyl)-2-(3,3-difluorocyclobutylamino)-2-oxoethyl)-N-(3-cyano-5-fluorophenyl)-3-(3-cyanophenyl)-2-oxooxazolidine-4-carboxamide [Compound 134]”, the IC50 in the assay on U87MG cells is under 0.1 µM.

With `O=C(NC1CC(F)(F)C1)[C@H](c1ccccc1Cl)N(C(=O)[C@@H]1CCC(=O)N1c1cccc(F)n1)c1cccc(F)c1` [Compound 11], the IC50 at IDH1 R132H and at IDH1 R132C was 0.1 to 0.5 µM each time.

For the molecule `COc1cccnc1N1C(=O)CC[C@H]1C(=O)N(c1cccc(F)c1)[C@H](C(=O)NC1CC(F)(F)C1)c1ccccc1Cl` [Compound 17], at IDH1 R132H, the IC50 lay in the range of 0.1 to 0.5 µM.

In the assay with U87MG cells, “(S)—N—((S)-1-(2-Chlorophenyl)-2-(3,3-difluorocyclobutylamino)-2-oxoethyl)-1-(3-cyano-phenyl)-N-(1H-indazol-7-yl)-5-oxopyrrolidine-2-carboxamide [Compound 186]” came in with an IC50 of under 0.1 µM.

Consider `O=C(NC1CC(F)(F)C1)C(c1ccccc1Cl)N(C(=O)[C@@H]1CCC(=O)N1c1cccnc1)c1cccc(F)c1` (stereo partly shown) [Compound 10], for which the IC50 at IDH1 R132H lay within 0.1 to 0.5 µM.

As for “(S)-tert-butyl 3-(((S)-1-(2-chlorophenyl)-2-((3,3-difluorocyclobutyl) amino)-2-oxoethyl)(3,5-difluorophenyl)carbamoyl)-5-oxopiperazine-1-carboxylate [Compound 97]”, the IC50 in the assay with U87MG cells was under 0.1 µM.

On to `O=C(NC1CC(F)(F)C1)[C@H](c1ccccc1Cl)N(C(=O)[C@@H]1CCC(=O)N1c1nccc2ccccc12)c1cccc(F)c1` [Compound 16], for which the IC50 on IDH1 R132H and at IDH1 R132C was 0.1 to 0.5 µM each time.

In turn, `N#Cc1cccc(N2C(=O)OC[C@H]2C(=O)N(c2cccc3cn[nH]c23)[C@H](C(=O)NC2CCC(F)(F)CC2)c2ccccc2Cl)c1` [Compound 142, (S)—N—((S)-1-(2-Chlorophenyl)-2-(4,4-difluorocyclohexylamino)-2-oxoethyl)-3-(3-cyanophenyl)-N-(1H-indazol-7-yl)-2-oxooxazolidine-4-carboxamide] yielded an IC50 in the assay on U87MG cells of under 0.1 µM.

On to “(S)-1-(4-Cyanopyridin-2-yl)-N—((S)-1-(2,4-dichlorophenyl)-2-((3,3-difluorocyclobutyl)-amino)-2-oxoethyl)-N-(3,5-difluorophenyl)-5-oxopyrrolidine-2-carboxamide [Compound 196]”, for which, in the assay with U87MG cells, the IC50 was under 0.1 µM.

On to “(S)—N—((S)-1-(2-Chlorophenyl)-2-((4,4-difluorocyclohexyl)amino)-2-oxoethyl)-1-(4-cyanopyridin-2-yl)-N-(1H-indazol-6-yl)-5-oxopyrrolidine-2-carboxamide [Compound 136]”, for which the IC50 in the assay with U87MG cells was under 0.1 µM.

In the assay with U87MG cells, “(S)—N—((S)-1-(2-Chlorophenyl)-2-((3,3-difluorocyclobutyl)amino)-2-oxoethyl)-1-(4-cyanopyridin-2-yl)-N-(1H-indazol-6-yl)-5-oxopyrrolidine-2-carboxamide [Compound 205]” gave an IC50 of under 0.1 µM.

The values above are taken from patent US9850277B2, “Therapeutically active compositions and their methods of use” (AGIOS PHARMACEUTICALS, INC, priority 2013, dated 2017).
